Laboratory results as given in patent US20040204493A1, “Carbonic anhydrase inhibitors as drugs to eradicate Helicobacter pylori in the mammalian, including human, stomach” (priority 2003, published 2004).
Where two headings read alike, the source gives them in different places.

Key:
[1] = system: basal acid secretion and stimulated acid secretion; settings: humans, cited from earlier work
[2] = cited from earlier work
[3] = system: H. pylori; assay: Periplasmic pH buffering of H. pylori in acid with urea, fluorescent pH sensitive dye BCECF (FIG. 1); assay type: cell-based, Helicobacter pylori
Experimental: (§1) H. pylori bacteria which could not produce α-carbonic anhydrase gene (deletion mutants) were unable to survive in acid and were incapable of raising their periplasmic pH even with wildtype urease activity levels. […] This is illustrated in FIG. 1 of the appended drawings.
Specifically, H. pylori was incubated in acid along with a fluorescent pH sensitive dye, BCECF, (bis-carboxy ethylcarboxy fluorescein) and then urea was added at 5 mM which is substantially the gastric juice concentration. In part A of the figure the increase in periplasmic pH is shown by the increased fluorescence of the dye indicating viable H. pylori bacteria.

[4] = molecular target: T1, urease (Helicobacter pylori, UniProt P69996); assay: Urease activity of H. pylori under in vitro treatment; assay type: cell-based; settings: wildtype H. pylori
T1 construct: endogenous in cells
Excerpt: as §1

[5] = system: H. pylori; assay: Survival of wildtype H. pylori in acid, in vitro; assay type: cell-based, Helicobacter pylori
Excerpt: as §1
Therefore, it is now understood in accordance with the present invention that it is the combination of urease activation, expression of UreI and the periplasmic carbonic anhydrase that allows gastric colonization by H. pylori. […] Thus, targeting the acid biology of this pathogen provides specific H. pylori therapy. It is recognized in accordance with the present invention that within these three targets, a safe drug is only available for carbonic anhydrase.

T1 sequence (P69996 whole entry): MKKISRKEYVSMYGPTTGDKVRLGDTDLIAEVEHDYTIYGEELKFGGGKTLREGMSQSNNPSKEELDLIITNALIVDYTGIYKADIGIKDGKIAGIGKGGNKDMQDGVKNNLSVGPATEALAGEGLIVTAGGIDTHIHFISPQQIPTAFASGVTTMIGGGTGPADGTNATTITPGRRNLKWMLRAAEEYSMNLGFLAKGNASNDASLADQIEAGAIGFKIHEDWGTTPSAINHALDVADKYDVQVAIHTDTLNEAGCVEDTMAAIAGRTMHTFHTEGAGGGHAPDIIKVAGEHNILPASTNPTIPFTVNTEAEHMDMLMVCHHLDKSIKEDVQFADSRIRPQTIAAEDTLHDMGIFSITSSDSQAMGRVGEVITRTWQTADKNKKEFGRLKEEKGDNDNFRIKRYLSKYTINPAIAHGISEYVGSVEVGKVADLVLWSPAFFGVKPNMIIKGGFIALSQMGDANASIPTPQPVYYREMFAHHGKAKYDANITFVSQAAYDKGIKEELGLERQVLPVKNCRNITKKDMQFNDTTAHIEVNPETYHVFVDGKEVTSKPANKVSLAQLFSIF
T1 sequence (P14916 whole entry, further chain): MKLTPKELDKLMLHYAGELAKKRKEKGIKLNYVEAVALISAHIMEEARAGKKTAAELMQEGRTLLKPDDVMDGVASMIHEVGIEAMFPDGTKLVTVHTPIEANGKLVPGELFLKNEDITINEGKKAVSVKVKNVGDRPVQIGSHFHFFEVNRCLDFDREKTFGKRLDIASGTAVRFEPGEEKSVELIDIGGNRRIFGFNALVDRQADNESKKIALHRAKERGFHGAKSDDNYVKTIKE

## CC(=O)Nc1nnc(S(N)(=O)=O)s1 [acetazolamide]
[1]; histamine stimulated
  reduction of histamine stimulated acid secretion (MAO): 83.2%
[1]
  reduction of basal acid output (BAO): 92.3%
  return of normal acid secretion following cessation of treatment: 3-5
  time of treatment to maximal acid inhibition: 3 to 5 days
[2]; 2 years after treatment, treated for 30 days (Valean et al.)
  relapse rate: 6.2%
[2]; 3 week treatment, ulcer healing (Erdei et al.)
  relapse rate: 11%
[2]; 118 gastric ulcer patients, oral, after 3-5 days
  patients with intragastric pain abolished: 94%
[2]; after 15 days of treatment
  patients with complete ulcer healing (endoscopic evaluation): 87%
[2]; after 30 days of treatment
  patients with complete ulcer healing (endoscopic evaluation): 94%
[3]; normal H. pylori in acid, urea 5 mM, drug added to the medium, FIG. 1 part C
  periplasmic buffering of pH (BCECF fluorescence): no periplasmic buffering of pH detected
[3]; wildtype H. pylori in acid, in vitro treatment
  bacterial ability to buffer its periplasm: inhibited
[4]
  effect on urease activity: without affecting urease activity
[5]; in acid, drug present
  loss of survival of H. pylori in acid: > 3 log order of magnitude
[5]; wildtype H. pylori, in vitro treatment
  bacterial ability to survive in acid: inhibited the bacterial ability to survive in acid
